Earlier results as cited in patent US6869622B2, “Composition for improving sleep quality and efficiency, and methods of preparing and using the composition” (Ancile Pharmaceuticals, Inc., priority 1999, dated 2005).
Read-outs that look alike come from different tables or passages of the source.

Key:
[1] = system: enzyme system which catalyses breakdown of GABA in the brain; conditions: 1 mmole/liter
mice [2] = system: mice
mice [3] = conditions: 12.5 and 25 mg/kg, IP in mice
mouse = conditions: 50 and 100 mg/kg, IP
[4] = system: AMES assay and the SOS-chromo-test
mice [5] = conditions: 26 mg/kg, IP or PO

SMILES: CC(=O)O[C@@H]1CC(C)=C2[C@H]1[C@H](C)CC[C@H]2/C=C(\C)C(=O)O [acetoxyvalerenic acid, Acetoxyvalerenic Acid]
- Inhibition of enzyme system which catalyses breakdown of GABA [1]: 38%

SMILES: CC1=C2[C@H](/C=C(\C)C(=O)O)CC[C@@H](C)[C@H]2CC1 [valerenic acid, Valerenic Acid]
- Inhibition of enzyme system which catalyses breakdown of GABA [1]: 20%
- Behavioural effects (mice [2]; 100 mg/kg intraperitoneally, mice): decrease in motor activity, a decrease in respiratory rate, absence of righting reflex, ataxia, a decrease of abdominal muscle tone, and a decrease in rotarod performance
- Performance on rotarod and traction tests (mice [2]; 100 mg/kg, IP): statistical significance
- Picrotoxin induced convulsions (mice [3]): antagonized
- Pentobarbital induced sleeping time (mouse): potentiate

SMILES: CC(C)CC(=O)OCc1cocc2c(C=O)ccc1-2 [homobaldrinal]
- Genotoxicity in vitro [4]: direct mutagenic effects

SMILES: CC(=O)OCc1cocc2c(C=O)ccc1-2 [baldrinal]
- Metabolic degradation of 14C-methacetin (mice [5]): distinctly inhibited
- Genotoxicity in vitro ([4]; AMES assay and SOS-chromo-test): direct mutagenic effects
